Measurements reported in patent publication US20080063670A1, “Nitroimidazole composition and method” (priority 2006, published 2008).
One block for each compound: values may come before it.

How the values were obtained:
[1] = Solubilization of nitroimidazoles in water with and without acids: crystals forced at about 4° C., re-dissolution observed at about 20° C. over about 14 days; type: physicochemical; set-up: key to crystals present: − means no crystals present; + means crystal are present; conditions: for crystals present: water, about 20° C., 14 days
Experimental: Heat was applied, if necessary, to dissolve the nitroimidazole. No organic co-solvents, water-soluble vitamins, or cyclodextrins were present in the solutions. The amount of acid was selected to be about equimolar with the amount of nitroimidazole added. After the nitroimidazole was dissolved, each solution was cooled to about 4° C. to force crystallization of some of the nitroimidazole. If crystals were not observed upon cooling, seed crystals of nitroimidazole were added and the solution were again maintained at about 4° C. […] The absence of crystals after 14 days indicates effective dissolution of the nitroimidazole.

[2] = in water at neutral pH; cited from earlier work

crystals present ([1]; Metronidazole Concentration 0.8%, Acid: Acetic (about equimolar)): − | crystals present ([1]; Metronidazole Concentration 0.8%, Acid: Hydrochloric (about equimolar)): − | crystals present ([1]; Metronidazole Concentration 0.8%, Acid: None): − | crystals present ([1]; Metronidazole Concentration 0.8%, Acid: Tartaric (about equimolar)): − | crystals present ([1]; Metronidazole Concentration 1.0%, Acid: Acetic (about equimolar)): − | crystals present ([1]; Metronidazole Concentration 1.0%, Acid: Citric (about equimolar)): − | crystals present ([1]; Metronidazole Concentration 1.0%, Acid: Hydrochloric (about equimolar)): − | crystals present ([1]; Metronidazole Concentration 1.0%, Acid: None): + | crystals present ([1]; Metronidazole Concentration 1.0%, Acid: Tartaric (about equimolar)): − | crystals present ([1]; Metronidazole Concentration 1.2%, Acid: Acetic (about equimolar)): + | crystals present ([1]; Metronidazole Concentration 1.2%, Acid: Hydrochloric (about equimolar)): + | crystals present ([1]; Metronidazole Concentration 1.2%, Acid: Tartaric (about equimolar)): − | crystals present ([1]; Metronidazole Concentration […], Acid: Citric (about equimolar)): − | crystals present ([1]; Metronidazole Concentration […], Acid: None): + | concentration of solutions free from crystals ([1]; at 20° C., utilizing organic acids (e.g., acetic acid, citric acid, tartaric acid, and malic acid)): at least 1 percent by weight
SMILES: Cc1ncc([N+](=O)[O-])n1CCO [Metronidazole, 1-(2-hydroxyethyl)-2-methyl-5-nitroimidazole]
solubility in water [2]: less than 1 percent by weight

crystals present ([1]; Tinidazole Concentration 0.45%, Acid: Acetic (about equimolar)): − | crystals present ([1]; Tinidazole Concentration 0.45%, Acid: Citric (about equimolar)): − | crystals present ([1]; Tinidazole Concentration 0.45%, Acid: Hydrochloric (about equimolar)): − | crystals present ([1]; Tinidazole Concentration 0.45%, Acid: None): − | crystals present ([1]; Tinidazole Concentration 0.45%, Acid: Tartaric (about equimolar)): − | crystals present ([1]; Tinidazole Concentration 0.50%, Acid: Acetic (about equimolar)): − | crystals present ([1]; Tinidazole Concentration 0.50%, Acid: Citric (about equimolar)): − | crystals present ([1]; Tinidazole Concentration 0.50%, Acid: Hydrochloric (about equimolar)): − | crystals present ([1]; Tinidazole Concentration 0.50%, Acid: None): + | crystals present ([1]; Tinidazole Concentration 0.50%, Acid: Tartaric (about equimolar)): − | crystals present ([1]; Tinidazole Concentration 0.55%, Acid: Acetic (about equimolar)): + | crystals present ([1]; Tinidazole Concentration 0.55%, Acid: Citric (about equimolar)): − | crystals present ([1]; Tinidazole Concentration 0.55%, Acid: Hydrochloric (about equimolar)): − | crystals present ([1]; Tinidazole Concentration 0.55%, Acid: None): + | crystals present ([1]; Tinidazole Concentration 0.55%, Acid: Tartaric (about equimolar)): − | crystals present ([1]; Tinidazole Concentration 0.60%, Acid: Acetic (about equimolar)): + | crystals present ([1]; Tinidazole Concentration 0.60%, Acid: Citric (about equimolar)): + | crystals present ([1]; Tinidazole Concentration 0.60%, Acid: Hydrochloric (about equimolar)): + | crystals present ([1]; Tinidazole Concentration 0.60%, Acid: None): + | crystals present ([1]; Tinidazole Concentration 0.60%, Acid: Tartaric (about equimolar)): + | concentration obtained (as high as), free from crystals ([1]; at 20° C., utilizing citric acid and using tartaric acid): about 0.55 percent by weight
SMILES: CCS(=O)(=O)CCn1c([N+](=O)[O-])cnc1C [Tinidazole, 1-[2-(ethylsulfonyl)ethyl]-2-methyl-5-nitroimidazole]
solubility in water [2]: about 0.45 percent by weight
